Data published in patent publication US11834460B2, “Imide-based modulators of proteolysis and associated methods of use” (YALE UNIVERSITY, priority 2018, dated 2023).

Experiments:
Format in all cases: cell-based
caspase 3/7 = assay: Caspase 3/7-Glow assay in BL cell lines; conditions: 24 hours, A825 0.1 μM, JQ1 1.0 μM, OTX015 1.0 μM
SLC19A1 = assay: RT-QPCR of SLC19A1 gene expression in NAMALWA cells; conditions: A825 0.1 μM 24 h, washout, 24 hours post-treatment
Procedure: RNA extraction was performed with Aurum™ Total RNA Mini Kit (#732-6820) from Bio-Rad. First-strand cDNA from total RNA was synthesized with High-Capacity cDNA Reverse Transcription Kit (#4368813) from Life Technologies according to manufacturer's instruction. Quantitative PCR was performed using Bio-rad SsoAdvanced™ Universal SYBR® Green Supermix (#172-5271). The following primers were used: […]
Cells were re-seeded in fresh medium and incubated without any inhibitor for 0 hr, 6.0 hr, and 24.0 hr. In a parallel control experiment, cells were treated in the same manner, except DMSO was used in place of inhibitor. At each time point, RNA was extracted from the lysates, reverse-transcribed into cDNA, and quantified by QPCR with SLC19A1 specific primers. GAPDH was also quantified by QPCR as an internal control.

[1] = test system: BL cell lines (NAMALWA, Ramos, CA-46, Daudi); assay: Proliferation assay (CellTiter-Glo) in BL cell lines
Procedure: To assess the effect of the inhibitors on proliferation, cells (50,000/100 μl) were seeded in 96-well tissue culture plates followed by addition of compound at the indicated concentration. After 72 hours, 100 μL per well of reconstituted CellTiter-Glo (CTG) reagent (#G7572 from Promega) was added and read on Cytation 3 imaging reader from BioTek. Relative cell growth was determined by comparing assay readings of treated cells with control DMSO treated cells.
Specifically, NAMALWA, Ramos, CA-46, and Daudi cell lines were seeded at 50,000 cells/100 μl in 96-well plates. […] Following treatment, the relative proliferation of the samples was determined by CTG assay 72 hours following treatment.
Cells were re-seeded in fresh medium and incubated without any compound for 0 hr, 24.0 hr, and 48.0 hr. In a parallel control experiment, cells were treated in the same manner, except DMSO was used in place of inhibitor. Following treatment, the relative proliferation of the samples was determined by CTG assay.
In a parallel control experiment, cells were treated in the same manner, except DMSO was used in place of inhibitor. Following treatment, the relative proliferation of the samples was determined by CTG assay.
In a parallel experiment, cells were treated in the same manner, except DMSO was used in place of pomalidomide.

c-Myc = assay: Western blot analysis of c-Myc in BL cell lines
Procedure: (§1) Cultured cells were collected in lysis buffer containing 40 mM HEPES (pH 7.4), 140 mM NaCl, 2.5 mM EDTA, 1% NP-40, 0.1% SDS and protease inhibitor cocktail. After 10 minutes of centrifugation (14000 rpm), supernatant was collected for protein concentration determination by BCA method and subjected for immunoblotting by standard protocol. Western blot results were visualized using Bio-Rad Clarity ECL Western Blotting Substrate on Bio-Rad ChemiDoc™ MP imaging system.
A separate set of cells were treated in the same manner, except that DMSO was used in place of the inhibitor. Following treatment, cell lysates were collected and analyzed by immunoblot for c-Myc and Actin.
Cells were re-seeded and incubated without inhibitor for 0 hr, 0.5 hr, 1.0 hr, 2.0 hr, 3.0 hr, 4.0 hr, and 6.0 hr. Cell lysates were then collected at the various time points and analyzed by immunoblot for c-Myc and Actin. In a parallel control experiment, NAMALWA cells were treated in the same manner, except DMSO was used in place of JQ1.
After treatment, the cells were either lysed (to evaluate the suppression of c-Myc by the inhibitors) or washed to remove the inhibitor, re-seeded, and incubated without inhibitor for 4.0 hours (to evaluate the reversibility of c-Myc suppression). Cell lysates were collected and analyzed by immunoblot for c-Myc and Actin.
Following treatment, cell lysates were collected and analyzed by immunoblot for BRD4, c-Myc and Actin.
Cells were re-seeded in fresh medium and incubated without any compound for 0 hr, 2.0 hr, 4.0 hr, 6.0 hr, and 24.0 hr. In a parallel control experiment, cells were treated in the same manner, except DMSO was used in place of inhibitor. Lysates were collected and analyzed by immunoblot for BRD4, c-Myc, and Actin.

PARP = PARP cleavage immunoblot in BL cells; conditions: 48 hours; A825 0.1 uM, JQ1 and OTX15 up to 10.0 μM; Ramos cells
Procedure: as §1
Lysates were collected and analyzed by immunoblot for PARP cleavage with actin as loading control.

With `Cc1sc2c(c1C)C(c1ccc(Cl)cc1)=N[C@@H](CC(=O)Nc1ccc(OCCOCCOCCOCCNc3cccc4c3C(=O)N(C3CCC(=O)NC3=O)C4=O)cc1)c1nnc(C)n1-2` (some centres unmarked) [Compound A825] the “caspase 3/7 activity” value (caspase 3/7) was “statistically significant increase in caspase activity”, the “SLC19A1 gene expression after compound removal” value (SLC19A1) was “greatly reduced compared to the control sample” and the suppression of proliferation ([1]; 72 hours, all BL cell lines tested) was “more pronounced suppression of proliferation compared to JQ1 or OTX15”. For the same molecule, the anti-proliferation effect ([1]; A825 10 nM with 10.0 μM pomalidomide, 72 hours, all cell lines tested) was “prevented the anti-proliferation effect”, the “duration of proliferation suppression post-treatment” value ([1]; A825 0.1 μM 24 h, washout, NAMALWA cells) was “more than 48 hours” and the “c-Myc protein level after compound removal” value (c-Myc; A825 0.1 μM 24 h, washout, 24 hours post-treatment, NAMALWA cells) was “well below the control sample”. The “c-Myc downregulation (immunoblot)” value (c-Myc; A825 100-1000 nM overnight, NAMALWA and Ramos cells) was “much more pronounced downregulation of c-Myc compared to JQ1 and OTX-15” and the “apoptosis by PARP cleavage” value (PARP) was “prominent PARP cleavage”.
